The subject of one data set is C3H/HeN mice. The note with it: 10 mg/kg orally once a day; 24 hours after DNFB application at fifth week; female C3H/HeN mice.

Data on 13 compounds can be found in US8049006B2, “7-membered ring compound and method of production and pharmaceutical application thereof” (Daiichi Sankyo Company, Limited, priority 2006, dated 2011).

As usually defined, the melting point is the temperature of the solid-liquid transition. Consider `COc1ccc(F)cc1/C=C1\CNC(=O)CN(S(=O)(=O)c2ccc(Cl)s2)C1=O`, for which the melting point is 150 to 153 °C.
On to `CC[C@@H](NC(=O)N1CC(=O)NC[C@@H](Cc2cc(Cl)ccc2OC)C1=O)c1cccc(C(=O)[O-])c1.[Na+]`, for which the melting point is 161 to 163 °C.
On the same count and under the same terms, next, `COC(=O)C[C@@H]1C(=O)NC[C@H](Cc2cc(F)ccc2OC)C(=O)N1S(=O)(=O)c1ccc(Cl)cc1`: 73 to 76 °C; `CC[C@@H](NC(=O)N1CC(=O)NCC(Cc2cc(Cl)ccc2OC)C1=O)C(=O)Nc1nnn[nH]1` (stereo partly drawn): 141 to 142 °C.
Still for that read-out and setting: next, `CC[C@@H](NC(=O)N1CC(=O)NCC(Cc2cc(Cl)ccc2OC)C1=O)C(=O)Nc1ccc(C)c(C(=O)O)c1` (stereo partly drawn): 132 to 134 °C; `COC(=O)COc1ccc(Cl)cc1CC1CNC(=O)CN(S(=O)(=O)c2ccc(Cl)cc2)C1=O` (stereo not drawn): 138 to 140 °C.
Same read-out and setting: next, `O=C(CN1CC(Cc2ccccc2)C(=O)N(S(=O)(=O)c2ccc(Cl)cc2)CC1=O)NCc1ccccc1` (stereo not drawn): 187 to 190 °C.
For the compound `COc1ccc(Cl)cc1CC1CNC(=O)CN(C(=O)Nc2cccc(NC(C)=O)c2)C1=O` (stereo not drawn), the melting point was in the range of 130 to 131 °C.
As for `Cc1cccc(CC2CNC(=O)CN(S(=O)(=O)c3ccc(Cl)cc3)C2=O)c1` (stereo not drawn), the melting point lay within 64 to 66 °C.
Same read-out and setting: then `N#Cc1ccc(S(=O)(=O)N2CC(=O)NC/C(=C\c3ccccc3)C2=O)cc1`, with 239 °C (dec.).
Compound `COc1ccc(Cl)cc1CC1CNC(=O)CN(S(=O)(=O)c2ccc(Cl)cc2)C1=O` (stereo not drawn) [Compound 29, 6-(5-chloro-2-methoxybenzyl)-4-[(4-chlorophenyl)sulfonyl]-1,4-diazepan-2,5-dione] had a melting point of 110 to 112 °C. Besides, the “inhibition rate of the skin reaction” value in the data set with C3H/HeN mice is on record as 25.1%.
Consider `COc1ccc(Cl)cc1CC1CNC(=O)CN(S(=O)(=O)c2ccc(Cl)c(N)c2)C1=O.Cl` (stereo not drawn) [Compound 90, 4-[(3-amino-4-chlorophenyl)sulfonyl]-6-(5-chloro-2-methoxybenzyl)-1,4-diazepan-2,5-dione Hydrochloride], for which, in the data set on C3H/HeN mice, the “inhibition rate of the skin reaction” value was 31.0%.
The compound `CC[C@@H](NC(=O)N1CC(=O)NC[C@@H](Cc2cc(Cl)ccc2OC)C1=O)c1cccc(C(=O)O)c1` [Compound 91, 3-[(1R)-1-({[(6R)-6-(5-chloro-2-methoxybenzyl)-3,7-dioxo-1,4-diazepan-1-yl]carbonyl}amino)propyl]benzoic Acid] gave a melting point of 121 to 123 °C. Further, the “inhibition rate of the skin reaction” value in the data set on C3H/HeN mice was determined as 26.1%.
